This passage reports melting point results from a melting point compilation (Tetko et al.; mined from patent text by program, amines drawn as free bases though some values may be those of a salt).

One may read the melting point as the temperature of the solid-liquid transition.

Some results are limits rather than exact numbers.

`Cc1cc(C(=O)O)cc(Cl)c1C1=NC(C)(C(C)C)C(=O)N1` (stereo not given) had a melting point of 245 to 248 °C.

Take `O=c1c2ccccc2ncn1C1CCN(CCCc2ccccc2)CC1`: the melting point was in the range of 107 to 108 °C. With `COc1ccc(C2CN(c3cc(C)c4c(c3C)CC(C)(C)O4)CCO2)cc1` (stereo not given), the melting point lay within 107 to 108 °C.

On to `CSc1ccc(C2NC(C(=O)O)C(C)(C)S2)cc1` (stereo not given), for which the melting point was in the range of 150 to 152 °C. Regarding `FC(F)(F)c1cc2ccccc2n1Cc1ccccc1`, the melting point amounted to 20 °C.

Molecule `COC(=O)COc1ccc(OC)cc1NC(=O)c1ccc(OCCCCc2ccccc2)cc1` yielded a melting point of 91 to 93 °C. As for `CC1(C)CC(=O)C(C(=O)Nc2ccc(Cl)c(Cl)c2)C(=O)C1`, the melting point fell in the range of 124 to 129 °C. `O=C(O)c1cn2c(-c3ccccc3)ncc2c2ccccc12` came in with a melting point of 187 to 190 °C. Under `Oc1ccc(-c2c3ccccc3c(Br)c3sc4ccccc4c23)cc1O` stands 181 to 182 °C.

Molecule `O=C(O)C(=NO)c1ccc(OCCOc2ccc3ccccc3c2)cc1` gave a melting point of 178 to 179 °C. With `CCN(C(=O)c1nn(-c2ccc(Cl)cc2Cl)c(-c2ccc(Cl)cc2)c1C)N1CC=CCC1`, the melting point is 109 °C. For `CNC(=O)n1nc(Oc2ncc(C(F)(F)F)cc2Cl)c(Cl)c1C`, the melting point lay in the range of 81 to 83 °C. With `COc1ccc(F)cc1C(C)(C)CC(O)(Cn1cc(CO)c(=O)c2ccccc21)C(F)(F)F` (stereo not given) the figure was 183 to 184 °C; with `COc1ccc(ONc2ccccc2)cc1`, 70 to 73 °C.

`NC(=O)C1CCc2[nH]c3ccc(F)c(Cl)c3c2C1` (stereo not given) showed a melting point of 226 to 227 °C. Regarding `O=C(O)c1nn(-c2ccc(Cl)cc2Cl)c(-c2ccc(Cl)cc2)c1Br`, the melting point was in the range of 222 to 224 °C.

Turning to `CCOC(=O)c1cc(C#N)c(C)nc1N1CCCCC1`, the melting point lay in the range of 72 to 74 °C. Under `CN(C)c1ccc(-c2cc(=O)c(C(=O)O)cn2-c2ccc(O)c(O)c2)cc1` stands 223 to 227 °C; under `NC(=O)N(O)CCNC(=O)c1cccc(OCc2ccccc2)c1`, 183 to 185 °C; under `COc1cc(Nc2c(C#N)cnc3cc(-c4ncccc4CN4CCOCC4)ccc23)c(Cl)cc1Cl`, 151 to 154 °C. Regarding `C#CCc1c(Cl)nc(NC=O)nc1Cl`, the melting point was in the range of 127 to 128 °C. Under `Nc1cc(O)c2c(c1)C(=O)c1cccc(O)c1C2=O` stands 250 to 252 °C; under `CC(C)(C)CC(=O)c1ccc(OCC(=O)O)c(Cl)c1Cl`, 145 to 146 °C.

The molecule `CC(C(N)=S)C(O)(Cn1cncn1)c1ccc(F)cc1F` (stereo not given) yielded a melting point of 164 to 167 °C. With `O=C1CC(c2ccc(Oc3ccc(C(F)(F)F)cc3)cc2)Cc2ccccc21` (stereo not given) the figure was 136 to 137 °C; with `O=C(CCc1cnoc1-c1ccccc1)Nc1ccc(-n2ccnc2)cc1`, 176 to 177 °C. The molecule `CN1Cc2c(Br)ncn2-c2ccc(F)cc2C1=O` gave a melting point of 200 °C. In turn, `CCCCC(=O)N(Cc1ccc(-c2ccccc2-c2nnn[nH]2)cc1Br)[C@H](C(=O)OCc1ccccc1)C(C)C` had a melting point of 104 to 106 °C. The molecule `CC(=O)Nc1ccc(S(=O)(=O)Nc2ccn(C3CCCC3)c(=O)n2)cc1` yielded a melting point of 219 to 228 °C.

With `O=c1c(CCO)c(O)c2cccnc2n1-c1ccccc1`, the melting point was in the range of 235 to 236 °C.

`CC(C)CCN1C(=O)C(N)C(=O)N(c2ccccc2F)c2ccccc21` (stereo not given): the melting point was 125 to 160 °C. Consider `CN1CN(c2ccccc2)C2(CCN(CCCn3c(=O)[nH]c4ccccc43)CC2)C1=O`, for which the melting point is 186 °C. On to `COC1=CC(=O)c2c(c(COc3cc(C=Cc4cc(OC)c(OC)c(OC)c4)ccc3OC)c(C)n2C)C1=O`, for which the melting point lay in the range of 192 to 194 °C. Regarding `O=C(O)/C=C/c1ccc2c(/C=C/C(=O)O)c[nH]c2c1`, the melting point is > 360 °C. With `CCc1nc(/C=C/c2cn(-c3ccccc3)nc2OCc2ccc(OCc3nc(-c4ccc(C(=O)O)o4)oc3C)c(OC)c2)cs1` the figure was 154 to 155 °C. `CCOC(=O)c1cncc(C(=O)OCC)c1` yielded a melting point of 42 to 44 °C.

`COc1ccc(C2N(C(C)=O)c3ccccc3-c3c([N+](=O)[O-])cnn32)cc1` (stereo not given) yielded a melting point of 153 to 154 °C. With `CCOC(=O)c1cnc2c3cc(NC(=O)C(CC)CC)ccc3ncn2c1=O`, the melting point fell in the range of 220 to 222 °C. As to `CC(O)=C(C(=O)OCC(Cl)(Cl)Cl)N1C(=O)C(NC(=O)COc2ccccc2)C1SSc1nc2ccccc2s1` (stereo not given), the melting point was 129 to 130 °C. Consider `CC(C)(C)c1ccc(C(=O)CCCN2CCC(O)CC2)cc1`, for which the melting point is 63 to 65 °C.

With `Cc1nsc2cc(N)c([N+](=O)[O-])cc12`, the melting point is 189 to 191 °C.

In turn, `Oc1ccc2c(c1)SCCc1c-2n(CCCCCN2CCCCC2)c2ccccc12` had a melting point of 130 °C. With `CCCn1c(C)c2c(c1C)C(=O)C(C)=C(C)C2=O` the figure was 165 to 167 °C; with `C=CC[C@@H]1C(=O)OC[C@@H]1O[Si](C)(C)C(C)(C)C`, 48 °C. With `CC(C(=O)O)c1ccc(-n2cc(Cl)cn2)c(Cl)c1` (stereo not given), the melting point lay within 102 to 103 °C. `Nc1c(Oc2ccc(F)c(C(F)(F)F)c2)ncnc1Oc1ccc(F)c(C(F)(F)F)c1` registered a melting point of 104 to 105 °C. In the case of `CCC(=S)C1=C(C)NC2=C(C(=O)c3ccccc32)C1c1ccccc1` (stereo not given), the melting point was 248 to 249 °C. Under `CN(C(=O)COc1cc(C(F)(F)C(F)(F)F)no1)c1ccccc1` stands 88 to 89 °C. `CC#CCOc1cccc(S(=O)(=O)N(C)C(C(=O)NO)c2ccc(OCCCNC(=O)OCC)cc2)c1` (stereo not given) returned a melting point of 60 to 62 °C.

`CCC(C)(CC)c1ccc(N)nn1` displayed a melting point of 56 to 58 °C.

With `O=[N+]([O-])c1ccc2c(c1)SC(c1ccc(Cl)cc1Cl)O2` (stereo not given), the melting point is 106 to 108 °C. `CCOc1nsc(NC(=O)NC)c1C#N` showed a melting point of 244 °C.

`CCn1nc(OCC(=O)c2ccc(F)cc2)c(-c2ccc(F)cc2)c1-c1ccc(OC)cc1`: the melting point fell in the range of 170 to 171 °C. As to `CC1CCc2c(Cl)c(F)cc3c(=O)c(C(=O)O)cn1c23` (stereo not given), the melting point lay in the range of 297 to 298 °C.

The molecule `COc1ccccc1-n1c(=O)[nH]c2c(C(N)=O)nc(-c3ccc(C#N)cc3)nc21` gave a melting point of 335 to 338 °C. For the molecule `CC(=O)C1C(=O)N(C(=O)NC(=O)c2ccccc2)c2ccccc21` (stereo not given), the melting point was determined as 198 °C. The molecule `COC(=O)CCC(=O)OCc1cc(CCCCCOc2c(Cl)cc(C3=NCCO3)cc2Cl)on1` showed a melting point of 39 to 41 °C. `N#Cc1ccc(-c2ccc(Cl)cc2)cc1` showed a melting point of 128 to 130 °C. On to `CN1C(=O)CCC2=C1CCc1cc(F)ccc12`, for which the melting point worked out at 108 °C. Turning to `O=C1N(O)CC12CCOc1cc(Cl)c(Cl)cc12` (stereo not given), the melting point lay in the range of 157 to 158 °C. `CC(C#N)=C1CCN(c2ccc(N3C[C@@H](CNNCC(=O)O)OC3=O)cc2F)CC1` gave a melting point of 141 to 142 °C.

Molecule `NC(=S)Nc1ccc(C(F)(F)F)cn1` came in with a melting point of 203 to 205 °C. In turn, `COc1ccc(N2CCN(c3ccc(-n4cn[nH]c4=O)cc3)CC2)cc1` showed a melting point of 300 °C. For `O=C(c1ccc([N+](=O)[O-])cc1)N1CCSC1=S`, the melting point was in the range of 166 to 167 °C. In the case of `Cc1cc(Cl)ccc1Br`, the melting point fell in the range of 91 to 95 °C.

Molecule `O=c1c2ccc(O)cc2nc(-c2ccc(O)cc2)n1-c1ccc(OCCCl)cc1` had a melting point of 285 to 287 °C. Molecule `C=C(C)C(=O)Oc1ccc(CNS(C)(=O)=O)cc1` showed a melting point of 101 to 102 °C.

`Cn1ccc(-c2ccc(C(=O)N3Cc4cccn4Cc4ccccc43)c(Cl)c2)n1` had a melting point of 148 to 150 °C. As for `Oc1c(C(=Nc2ccccc2)Nc2ccccc2)sc2ccccc12`, the melting point lay within 152 to 153 °C. With `COc1ccc(C=O)cc1OC(=O)c1ccccc1` the figure was 70 to 72 °C; with `O=C(O)c1ccsc1-c1sccc1C(=O)O`, 194 to 198 °C; with `CC1(C)CC(=O)C(C(=O)Nc2cccc(C(F)(F)F)c2)C(=O)C1`, 116 to 117 °C.

In turn, `c1ccc(-c2nc3cnccc3[nH]2)cc1` had a melting point of 225 to 226 °C.

As to `CCOC(=O)C=C1CN=C(c2ccccc2F)c2cc(Cl)ccc2N1`, the melting point was in the range of 109 to 111 °C. Molecule `CCN(CC)CCNc1ccc(CNC)c2sc3ccc(O)cc3c(=O)c12` had a melting point of 167 to 169 °C. For the molecule `CCCC1(C)C(=O)N(CCl)S(=O)(=O)N1C` (stereo not given), the melting point lay in the range of 99 to 100 °C.

In turn, `CNC1=NN(c2cccc(Cl)c2)CC1C` (stereo not given) gave a melting point of 75 to 76 °C. With `O=C(O)c1cn(C2CC2)c2c(F)c(N3C[C@H](CF)[C@H](NC(=O)C(F)(F)F)C3)c(F)c(F)c2c1=O` (relative stereo) the figure was 283 to 284 °C; with `Cn1c(-c2ccccc2F)nnc1S(C)(=O)=O`, 128 to 130 °C; with `Cc1nccn1C[Si](C)(C)Cc1ccc(F)cc1`, 60 to 62 °C.

Regarding `CN(C)c1nc(-c2cccc3ccccc23)co1`, the melting point was 30 to 32 °C.

In the case of `CC(C)(C)OC(=O)CNC(=O)CC(c1ccccc1)c1ccccc1`, the melting point was 77 to 81 °C. `CC(C)CC1(C(CCN2C(=O)c3ccc(F)cc3C2=O)C(=O)NO)CCN(CCc2ccccc2)C1=O` (stereo not given) displayed a melting point of 143 to 144 °C. For `CS(=O)(=O)c1ccc(-c2nn(Cc3ccccc3)c(=O)cc2-c2ccccc2)cc1`, the melting point fell in the range of 211 to 212 °C. Molecule `CC12C=CC(=O)NC1CCc1cc(Cl)ccc12` (stereo not given) had a melting point of 151 to 154 °C. Molecule `O=c1[nH]c2ccccc2n1C/C=C/CCl` came in with a melting point of 120 °C. Regarding `CCCCC1(CCCC)CCc2ccc(OCc3ccc4ccccc4n3)cc2C1=O`, the melting point lay within 88 to 89 °C. For the molecule `Cn1cc(C2=C(c3cccc(NC(O)CCO)c3)C(=O)NC2=O)c2ccccc21` (racemic), the melting point is 97.5 to 101 °C.

As to `CCCCCCCCCCCC(=O)c1cn(S(=O)(=O)c2ccc(C)cc2)c2ccccc12`, the melting point lay in the range of 79 to 80 °C. For `CCCCc1nc2c(N)nc3ccc(OCc4ccccc4)cc3c2n1CCCCNC(=O)Nc1ccccc1`, the melting point is 190 to 194 °C.
